Marks after values point to notes of the source that are not given here.

The conditions of this data set: pH 2.7.
As a reminder, the LogP is the decadic logarithm of the partition coefficient of the neutral form, usually between octanol and water. A higher LogP goes with higher lipophilicity. Take `CCCCCC(=O)Nc1nc(CO/N=C(/c2ccccc2Cl)c2noc(=O)n2C)cs1` [Example 538]: the LogP was 3.89 [a].
For `Cn1c(/C(=N\OCc2csc(NC(=O)SC(C)(C)C)n2)c2ccccc2)noc1=O` [Example 539], the LogP is 4.04 [a].
In the case of `Cn1c(/C(=N\OCc2csc(NC(=O)Cc3ccccc3)n2)c2ccccc2Cl)noc1=O` [Example 543], the LogP is 3.51 [a].
With `CCCCOC(=O)Nc1cccc(CO/N=C(/c2ccccc2F)c2noc(=O)n2C)n1` [Example 552] the figure was 3.92 [a]; with `CCCCCCN(C(=O)OC(C)(C)C)c1cccc(CO/N=C(/c2cccc(C)c2)c2noc(=O)n2C)n1` [compound 299], 6.57 [a]; with `Cn1c(/C(=N\OCc2cccc(NC(=O)OCCCC3CCCC3)n2)c2ccccc2)noc1=O` [compound 408], 5.31 [a].
As for `COc1ccccc1COC(=O)Nc1cccc(CO/N=C(/c2ccccc2)c2noc(=O)n2C)n1` [compound 409], the LogP is 4.06 [a].
On to `Cn1c(/C(=N\OCc2cccc(NC(=O)OCc3ccncc3)n2)c2ccccc2)noc1=O` [compound 411], for which the LogP was 2.01 [a].
With `Cn1c(/C(=N\OCc2cccc(NC(=O)OCC3(C)COC3)n2)c2ccccc2)noc1=O` [compound 412] the figure was 2.96 [a]; with `Cn1c(/C(=N\OCc2cccc(NC(=O)OCc3ccccc3Cl)n2)c2ccccc2)noc1=O` [compound 413], 4.34 [a]; with `CC#CCOC(=O)Nc1cccc(CO/N=C(/c2ccccc2)c2noc(=O)n2C)n1` [compound 414], 3.42 [a].
With `CCCCCC#CCOC(=O)Nc1cccc(CO/N=C(/c2ccccc2)c2noc(=O)n2C)n1` [compound 415] the figure was 4.86 [a]; with `CCCCC#CCOC(=O)Nc1cccc(CO/N=C(/c2ccccc2)c2noc(=O)n2C)n1` [compound 418], 4.51 [a]; with `CCCCCCCOC(=O)Nc1cccc(CO/N=C(/c2ccccc2)c2noc(=O)n2C)n1` [compound 419], 5.25 [a].
As to `CCOC(=O)Nc1cccc(CO/N=C(/c2ccccc2)c2noc(=O)n2C)n1` [compound 421], the LogP is 3.21 [a].
The result for `Cn1c(/C(=N\OCc2cccc(NC(=O)OCCC[Si](C)(C)C)n2)c2ccccc2)noc1=O` [compound 422] reads 5.28 [a]; that for `Cn1c(/C(=N\OCc2cccc(NC(=O)OCCC(C)(C)C)n2)c2ccccc2)noc1=O` [compound 423], 4.68 [a]; that for `Cn1c(/C(=N\OCc2cccc(NC(=O)OCC(C)(CO)CCl)n2)c2ccccc2)noc1=O` (centres unmarked) [compound 424], 3.19 [a].
For the compound `Cc1ccc(OC(=O)Nc2cccc(CO/N=C(/c3ccccc3)c3noc(=O)n3C)n2)cc1` [compound 425], the LogP was 4.03 [a].
With `CCCc1ccccc1OC(=O)Nc1cccc(CO/N=C(/c2ccccc2)c2noc(=O)n2C)n1` [compound 426], the LogP was 4.54 [a].
With `CC(C)OC(=O)Nc1cccc(CO/N=C(/c2ccccc2)c2noc(=O)n2C)n1` [compound 427] the figure was 3.55 [a].
With `Cn1c(/C(=N\OCc2cccc(NC(=O)OCc3c(Cl)cccc3Cl)n2)c2ccccc2)noc1=O` [compound 428] the figure was 4.56 [a].
With `COC(C)CCOC(=O)Nc1cccc(CO/N=C(/c2ccccc2)c2noc(=O)n2C)n1` (centres unmarked) [compound 429], the lipophilicity (LogP) was 3.37 [a].
With `CCc1ccccc1OC(=O)Nc1cccc(CO/N=C(/c2ccccc2)c2noc(=O)n2C)n1` [compound 430] the figure was 4.25 [a]; with `CCOCCCOC(=O)Nc1cccc(CO/N=C(/c2ccccc2)c2noc(=O)n2C)n1` [compound 431], 3.44 [a].
As to `Cn1c(/C(=N\OCc2cccc(NC(=O)OCc3ccc(C#N)cc3)n2)c2ccccc2)noc1=O` [compound 432], the LogP is 3.61 [a].
The result for `Cn1c(/C(=N\OCc2cccc(NC(=O)OCC3CCCCO3)n2)c2ccccc2)noc1=O` (centres unmarked) [compound 433] reads 3.5 [a]; that for `Cn1c(/C(=N\OCc2cccc(NC(=O)OCc3cccnc3)n2)c2ccccc2)noc1=O` [compound 434], 2.17 [a]; that for `CCc1cccc(OC(=O)Nc2cccc(CO/N=C(/c3ccccc3)c3noc(=O)n3C)n2)c1` [compound 435], 4.34 [a].
The result for `C#CCCCOC(=O)Nc1cccc(CO/N=C(/c2ccccc2)c2noc(=O)n2C)n1` [compound 436] reads 3.51 [a].
`Cn1c(/C(=N\OCc2cccc(NC(=O)OCc3ccccn3)n2)c2ccccc2)noc1=O` [compound 437]: the lipophilicity (LogP) was 2.64 [a].
The result for `Cn1c(/C(=N\OCc2cccc(NC(=O)OCCC3CC3)n2)c2ccccc2)noc1=O` [compound 438] reads 4.01 [a].
The result for `CCOCCOCCOC(=O)Nc1cccc(CO/N=C(/c2ccccc2)c2noc(=O)n2C)n1` [compound 439] reads 3.13 [a]; that for `Cn1c(/C(=N\OCc2cccc(NC(=O)OC[Si](C)(C)C)n2)c2ccccc2)noc1=O` [compound 440], 4.53 [a].
Turning to `COc1cccc(COC(=O)Nc2cccc(CO/N=C(/c3ccccc3)c3noc(=O)n3C)n2)c1` [compound 441], the LogP is 3.96 [a].
`Cn1c(/C(=N\OCc2cccc(NC(=O)OCC#C[Si](C)(C)C)n2)c2ccccc2)noc1=O` [compound 443]: the LogP is 4.63 [a].
The result for `Cn1c(/C(=N\OCc2cccc(NC(=O)OC(C)(C)C(Cl)(Cl)Cl)n2)c2ccccc2)noc1=O` [compound 445] reads 4.91 [a]; that for `CC(=O)CCCOC(=O)Nc1cccc(CO/N=C(/c2ccccc2)c2noc(=O)n2C)n1` [compound 446], 2.96 [a]; that for `Cn1c(/C(=N\OCc2cccc(NC(=O)OCCOCCCl)n2)c2ccccc2)noc1=O` [compound 447], 3.29 [a].
Consider `CC(C)=CCCOC(=O)Nc1cccc(CO/N=C(/c2ccccc2)c2noc(=O)n2C)n1` [compound 448], for which the lipophilicity (LogP) is 4.39 [a].
As to `COc1ccc(COC(=O)Nc2cccc(CO/N=C(/c3ccccc3)c3noc(=O)n3C)n2)cc1` [compound 450], the LogP is 3.92 [a].
The result for `CC(COC(=O)Nc1cccc(CO/N=C(/c2ccccc2)c2noc(=O)n2C)n1)CC(C)(C)C` (centres unmarked) [compound 451] reads 5.39 [a].
With `C=CCC#CCCOC(=O)Nc1cccc(CO/N=C(/c2ccccc2)c2noc(=O)n2C)n1` [compound 452] the figure was 4.01 [a]; with `C=CCCCCOC(=O)Nc1cccc(CO/N=C(/c2ccccc2)c2noc(=O)n2C)n1` [compound 454], 4.39 [a].
Take `Cn1c(/C(=N\OCc2cccc(NC(=O)OCCOc3ccccc3)n2)c2ccccc2)noc1=O` [compound 456]: the LogP was 3.94 [a].
The result for `COC(C)(C)CCOC(=O)Nc1cccc(CO/N=C(/c2ccccc2)c2noc(=O)n2C)n1` [compound 457] reads 3.59 [a].
For the compound `Cc1cccc(COC(=O)Nc2cccc(CO/N=C(/c3ccccc3)c3noc(=O)n3C)n2)c1` [compound 458], the LogP was 4.34 [a].
The result for `Cn1c(/C(=N\OCc2cccc(NC(=O)OCCBr)n2)c2ccccc2)noc1=O` [compound 459] reads 3.42 [a]; that for `Cn1c(/C(=N\OCc2cccc(NC(=O)OCC(Cl)Cl)n2)c2ccccc2)noc1=O` [compound 461], 3.74 [a].
The result for `CC(C)[C@@H]1CC[C@@H](C)C[C@H]1OC(=O)Nc1cccc(CO/N=C(/c2ccccc2)c2noc(=O)n2C)n1` [compound 462] reads 5.9 [a]; that for `CCCCCCCCOC(=O)Nc1cccc(CO/N=C(/c2ccccc2)c2noc(=O)n2C)n1` [compound 465], 5.65 [a].
With `C=C(C)OC(=O)Nc1cccc(CO/N=C(/c2ccccc2)c2noc(=O)n2C)n1` [compound 466], the lipophilicity (LogP) was 3.37 [a].
Take `CCCc1ccc(OC(=O)Nc2cccc(CO/N=C(/c3ccccc3)c3noc(=O)n3C)n2)cc1` [compound 467]: the lipophilicity (LogP) is 4.74 [a].
The result for `Cn1c(/C(=N\OCc2cccc(NC(=O)OCC#Cc3ccccc3)n2)c2ccccc2)noc1=O` [compound 468] reads 4.25 [a]; that for `CCCc1cccc(OC(=O)Nc2cccc(CO/N=C(/c3ccccc3)c3noc(=O)n3C)n2)c1` [compound 469], 4.72 [a].
As to `Cc1cc(C)c(OC(=O)Nc2cccc(CO/N=C(/c3ccccc3)c3noc(=O)n3C)n2)c(C)c1` [compound 470], the LogP was 4.56 [a].
The result for `Cn1c(/C(=N\OCc2cccc(NC(=O)OCCc3ccccn3)n2)c2ccccc2)noc1=O` [compound 471] reads 2.07 [a]; that for `CN(C)CCCOC(=O)Nc1cccc(CO/N=C(/c2ccccc2)c2noc(=O)n2C)n1` [compound 472], 1.88 [a]; that for `Cn1c(/C(=N\OCc2cccc(NC(=O)OCC3CC3)n2)c2ccccc2)noc1=O` [compound 473], 3.64 [a].
Take `Cn1c(/C(=N\OCc2cccc(NC(=O)OCc3ccc([N+](=O)[O-])cc3)n2)c2ccccc2)noc1=O` [compound 476]: the LogP is 3.83 [a].
Regarding `Cn1c(/C(=N\OCc2cccc(NC(=O)OCc3cccc(C#N)c3)n2)c2ccccc2)noc1=O` [compound 477], the LogP was 3.65 [a].
The result for `CCc1ccc(OC(=O)Nc2cccc(CO/N=C(/c3ccccc3)c3noc(=O)n3C)n2)cc1` [compound 478] reads 4.39 [a]; that for `C=COC(=O)Nc1cccc(CO/N=C(/c2ccccc2)c2noc(=O)n2C)n1` [compound 482], 3.33 [a]; that for `Cn1c(C(=NOCc2cccc(NC(=O)OCC3CCCO3)n2)c2ccccc2)noc1=O` (centres unmarked) [compound 483], 3.11 [a].
For the compound `C#CCCCCOC(=O)Nc1cccc(CON=C(c2ccccc2)c2noc(=O)n2C)n1` [compound 484], the LogP was 3.78 [a].
As to `CC(OC(=O)Nc1cccc(CON=C(c2ccccc2)c2noc(=O)n2C)n1)C1CCCCC1` (centres unmarked) [compound 485], the log partition coefficient (LogP) was 5.25 [a].
As to `Cn1c(C(=NOCc2cccc(NC(=O)OCCCCCCCl)n2)c2ccccc2)noc1=O` [compound 486], the lipophilicity (LogP) is 4.49 [a].
With `Cc1ccccc1COC(=O)Nc1cccc(CON=C(c2ccccc2)c2noc(=O)n2C)n1` [compound 487] the figure was 4.29 [a].

The record behind these values is patent publication US9090600B2, “Fungicidal 4-substituted-3-{phenyl[(heterocyclylmethoxy)imino]methyl}-1,2,4-oxadizol-5(4H)-one derivatives” (BAYER INTELLECTUAL PROPERTY GMBH, priority 2011, dated 2015).
